In brackets after ≈: the same amount, converted by molar mass.
What was measured:
Assay type in all cases: cell-based
C. freundii 104 [1] = assay: Conventional AST method using absorbance at 620 nm; conditions: Citrobacter freundii, 4 hrs and 16 hrs, breakpoint 400
Protocol: The monochromatic method of spectral analysis involves selecting a single wavelength that contains a unique spectral feature for the analyte of interest. In the conventional method, the analyte is turbidity and its measurement at 620 nm wavelength is used to quantify growth. The current conventional AST method determines growth by comparing the calculated processed value, which is the 620 nm absorbance difference between two (2) hours and forty-five minutes and 16 or 18 hours against a breakpoint. This breakpoint was determined by testing 100-200 isolates and reading results manually or via instruments and correlating the reads of those isolates to their processed values. This approach has limited capability because the processed value is not corrected for system-dependent variations and the breakpoint is not adaptable to system change. […] (see, e.g., Dried Gram Negative Procedural Manual, supra, at page 1 (and references cited therein).) Appropriate specimens should be collected, transported, and placed on primary isolation media according to procedures recommended in the Manual of Clinical Microbiology (Murray, et al. (eds.), Manual of Clinical Microbiology, 6th ed., American Society for Microbiology, Washington, D.C. (1995)). Subsequently, a standard, automated assay may thus be conducted essentially as follows.

C. freundii 104 [2] = assay: New AST method using bichromatic absorbance between 405 and 620 nm; conditions: for Susceptibility Index (D6 − C6)/(D3 − C3): 6 hrs vs 3 hrs
Text: (§1) The goals of the new AST method are to achieve higher precision, greater accuracy and increased reliability by using (1) quantitative spectral information derived from bichromatic measurements, (2) a dynamic breakpoint for individual drug wells based on their initial condition, and (3) a susceptibility index for determining susceptibility. The new AST method includes the following processes.
(§2) Bichromatic absorbance is the difference between the primary wavelength with significant turbidity and the secondary wavelength with little turbidity. For Gram positive organisms, the wavelengths are 505 and 620 for all drugs.
(§3) For Gram negative organisms, the wavelengths are 405 and 620 nm for most drugs except Nitrofurantoin and tetracycline. The wavelengths for Nitrofurantoin and tetracycline are 505 and 620 nm.
(§4) The susceptibility index (SI) is the ratio of the initial and final absorbance after correction for system drift. The susceptibility indexes are calculated for each drug well and the growth well (positive control well). The following formula (equation 1) is used to calculate the susceptibility index:
(§5) where • Di=Initial bichromatic absorbance from drug well • Df=Final bichromatic absorbance from drug well • Ci=Initial bichromatic absorbance from control ([…]) well • Cf=Final bichromatic absorbance from control (negative control) well
(§6) Compare susceptibility indices from drug wells to determine growth/no growth. A value of 1.05 is presently preferred for use as a cutoff to determine growth. The value may be adjusted as assay procedures undergo further refinement but is nonetheless expected to retain a value approaching 1.
(§7) In the current conventional MIC methods used in many art-recognized systems, the MIC is the first no growth well after the last growth well in the dilution series. Difficulties in interpretation occur, however, when there are “no growth” wells interspersed amongst “growth” wells in the same series. Conventional methods treat these no growth wells as “skipped” wells and the MIC is adjusted according to the number of skipped wells. In the methods and systems of the invention, however, an algorithm is applied which more accurately identifies which wells are true skipped wells. In addition, the algorithm is applied to determine which wells are contaminated. Use of the new system increases the accuracy of the read substantially.

C. freundii 104 [3] = assay: Manual read MIC; conditions: Citrobacter freundii; C. freundii 104, manual read
Text: (§8) (see, e.g., Dried Gram Negative Procedural Manual, supra, at page 1 (and references cited therein).) Appropriate specimens should be collected, transported, and placed on primary isolation media according to procedures recommended in the Manual of Clinical Microbiology (Murray, et al. (eds.), Manual of Clinical Microbiology, 6th ed., American Society for Microbiology, Washington, D.C. (1995)). Subsequently, a standard, automated assay may thus be conducted essentially as follows.
(§9) The panels may be read manually (e.g. using a MICROSCAN® Microdilution Viewer, Dade MicroScan Inc., West Sacramento, Calif.) and results recorded on an appropriate worksheet. The panels may also—or alternatively—be read instrumentally, e.g., using a TOUCHSCAN®-SR, AUTOSCAN®-4, or WALKAWAY® system (Dade MicroScan Inc., West Sacramento, Calif.). Refer to the appropriate operator's manual for reading panels using instrumentation.

C. freundii 87 [4] = assay: New AST method using bichromatic absorbance between 405 and 620 nm
Text: as §1, §2, §3, §4, §5, §6, §7

C. freundii 87 [5] = assay: Manual read MIC; conditions: Citrobacter freundii; C. freundii 87, manual read
Text: as §8, §9

C. freundii 87 [6] = assay: Conventional AST method using absorbance at 620 nm; conditions: Citrobacter freundii, 3 hrs and 16 hrs, breakpoint 1800
Protocol: In the conventional method, the analyte is turbidity and its measurement at 620 nm wavelength is used to quantify growth. The current conventional AST method determines growth by comparing the calculated processed value, which is the 620 nm absorbance difference between two (2) hours and forty-five minutes and 16 or 18 hours against a breakpoint. This breakpoint was determined by testing 100-200 isolates and reading results manually or via instruments and correlating the reads of those isolates to their processed values. […] Subsequently, a standard, automated assay may thus be conducted essentially as follows.

[7] = Citrobacter freundii, bichromatic 405-620 nm, 3 hrs and 6 hrs

| SMILES | MIC (C. freundii 104 [1]) [µg/mL] | MIC (C. freundii 104 [2]; [7]) [µg/mL] | Susceptibility Index (D6 − C6)/(D3 − C3) (C. freundii 104 [2]; drug level 0.5 μg/mL) | Susceptibility Index (D6 − C6)/(D3 − C3) (C. freundii 104 [2]; drug level 1 μg/mL) | Susceptibility Index (D6 − C6)/(D3 − C3) (C. freundii 104 [2]; drug level 2 μg/mL) | Susceptibility Index (D6 − C6)/(D3 − C3) (C. freundii 104 [2]; drug level 4 μg/mL) | Susceptibility Index (D6 − C6)/(D3 − C3) (C. freundii 104 [2]; drug level 8 μg/mL) | MIC (C. freundii 104 [3]) [µg/mL] | MIC (C. freundii 87 [4]; [7]) [µg/mL] | Susceptibility Index (D6 − C6)/(D3 − C3) (C. freundii 87 [4]; drug level 256 μg/mL, 6 hrs vs 3 hrs) | MIC (C. freundii 87 [5]) [µg/mL] | MIC (C. freundii 87 [6]) [µg/mL] |
| --- | --- | --- | --- | --- | --- | --- | --- | --- | --- | --- | --- | --- |
| NC[C@H]1O[C@H](O[C@H]2[C@H](O)[C@@H](O[C@H]3O[C@H](CO)[C@@H](O)[C@H](N)[C@H]3O)[C@H](N)C[C@@H]2N)[C@H](N)C[C@@H]1O [Tobramycin] | 2 (≈ 4.28 µM) | 2 (≈ 4.28 µM) | 3696/1205 = 3.0 | 1898/1201 = 1.6 | 1145/1180 = 1.0 | 1096/1136 = 1.0 | 1196/1237 = 1.0 | 2 (≈ 4.28 µM) | – | – | – | – |
| Cc1cc(NS(=O)(=O)c2ccc(N)cc2)no1 [Sulfamethoxazole] | – | – | – | – | – | – | – | – | > 256 | 1639/1064 = 1.5 | > 256 | < 256 |
